The source of these data is PMC3050713 (Cancer chemotherapy and pharmacology, 2008).

Data set [1] in a line: Phase 1 dose escalation: toxicity, DLT and MTD of Triapine with doxorubicin. Type of data set: in vivo, human.
Data set [2] in a line: Triapine pharmacokinetics in plasma and erythrocytes. Type of data set: in vivo, human. The settings on record: for Tmax: 45 mg/m2, Tmax, Triapine 25 or 45 mg/m2, cycle 1 day 1.
The subject of data set [3] is L1210 leukemia. The settings on record: murine models; cited from earlier work.
For data set [4], the system named is Madison 109 (M109) lung tumors. The settings on record: twice daily intra-peritoneal for 5-6 days at 8-10 mg/kg/dose; cited from earlier work.
The test system of data set [5] is A2780 ovarian tumors. The settings on record: twice daily intra-peritoneal for 5-6 days at 8-10 mg/kg/dose; cited from earlier work.
For data set [6] the following is noted: cited from earlier work.
For data set [7] the following is noted: cited from earlier work. This is another data set of the same source.
Data set [8] is described as follows: clinical. The settings on record: human.
The nature of data set [9]: Doxorubicin pharmacokinetics in plasma. The settings on record: mean.
Where [10] appears, read: human, erythrocytes, intravenous.
Where [11] appears, read: 2 hour IV infusions for 5 days of every 28 day cycle.

Structures are written as SMILES. Where a name gives a salt, the structure may show the parent alone. Read-outs that look alike come from different tables or passages of the source.

The term Cmax denotes the maximum level reached in the sampled fluid or tissue. Usually AUC(0-inf) stands for total exposure, with the tail of the curve extrapolated. Read a high AUC(0-inf) as more exposure. By half-life is commonly meant how long it takes for the measured level to halve. Usually Tmax stands for the time from dosing to the highest level. Consider `NC(=S)NN=Cc1ncccc1N` [Triapine, 3-aminopyridine-2-carboxaldehyde thiosemicarbazone], for which the “recommended phase II combination dose” value in data set [1] (Triapine 2 hour infusion on days 1-4) came to 25 mg/m^2. For the same compound, the Cmax in data set [2] (erythrocytes, dose adjusted, mean) was 710 ng/mL; in [2] (setting [10]), 710 ± 180 ng/mL; in [2] (human, plasma, intravenous) it was 650 ± 180 ng/mL; in data set [2] (plasma, dose adjusted, mean), 650 ng/mL. The Cl in data set [2] (erythrocytes, mean) was determined as 0.34 mL/min/m^2; in data set [2] (plasma, mean) it was 0.38 mL/min/m^2. Also, the Vss in data set [2] (erythrocytes, mean) was 83 L/m^2; in data set [2] (plasma, mean), 107 L/m^2. Further, the AUC(0-inf) in [2] (setting [10]) was 1450 ng·h/mL; in data set [2] (human, plasma, intravenous), 1210 ng·h/mL. In addition, the half-life in data set [2] (human, erythrocytes, intravenous, 45 mg/m2) was 4.2 h; in [2] (human, plasma, iv), 5.3 h. For the same compound, the Tmax in data set [2] (human, erythrocytes, intravenous, erythrocytes, mean) turned out to be 0.04 h; in data set [2] (human, plasma, intravenous, plasma, mean) it was 0.22 ± 0.11 h. Moreover, the anti-tumor activity result in data set [3] was “displayed anti-tumor activity”; in [6] (single 2-hour IV infusion every 4 weeks), “no anti-tumor activity was observed”. The effect on tumors entry in [4] and in [5] was “effective” throughout. Moreover, in [6] (2-hour infusion daily x 5 schedule), the “major DLT” value is on record as “transient neutropenia”. Further, the “patients with grade 2 anemia” value in data set [6] (setting [11]) is 73%. Also, in [6] (setting [11]), the “patients with grade 3 anemia” value is on record as 22%. Besides, in data set [6] (setting [11]), the “patients with grade 3 or 4 thrombocytopenia” value is 22%. Moreover, the “patients with grade 4 leucopenia in at least one course” value in data set [6] (setting [11]) was 93%. Besides, the “single-agent MTD” value in [6] (setting [11]) is given as 96 mg/m^2. In [6] (2 hour infusion of ≥ 140 mg/m^2), the “toxicities associated with the infusion” value was “reversible hypotension, hypoxia, dyspnea, cough, and EKG changes including ST-T wave changes and prolongation of the QT interval”. In addition, the DLTs entry in [6] (single 2-hour IV infusion every 4 weeks, doses up to 105 mg/m^2) is recorded as “no DLTs were observed”. Besides, the “recommended phase II dose” value in data set [6] (single agent, daily for 4 days) is listed as 96 mg/m2.

Take `COc1cccc2c1C(=O)c1c(O)c3c(c(O)c1C2=O)C[C@@](O)(C(=O)CO)C[C@@H]3O[C@H]1C[C@H](N)[C@H](O)[C@H](C)O1` [doxorubicin, Doxorubicin hydrochloride]: the “recommended phase II combination dose” value in data set [1] (doxorubicin IV bolus on day 1 immediately following Triapine) was 60 mg/m^2. The “incidence of CHF” value in data set [7] (cumulative dose 450 mg/m^2) is listed as 4%; in [7] (cumulative dose up to 300 mg/m^2), 1%. Besides, the patients with leucopenia entry in [7] (doxorubicin 60 mg/m^2 every 21 days) is given as “approximately 75%”. For the same compound, the half-life in data set [8] (in vivo, iv) was 10.1 h. Further, in data set [8] (plasma, intravenous), the Tmax was found to be 0.2 h. This compound gave a Cl in data set [9] of 252 mL/min/m^2. In addition, the Vss in data set [9] is listed as 219 L/m^2.
